From US5208263A, “Anti-androgen compounds” (Arch Development Corporation, priority 1989, dated 1993)
Read-outs that look alike come from different tables or passages of the source.

Experiments:
[1] = biological target: T1, androgen receptor of rat ventral prostate (Rattus norvegicus, UniProt P15207); assay: Competition with [3H]R1881 for androgen receptor binding, cell-free assay (Table 1)
T1 construct: androgen receptors isolated, as described in Chang, C., et al., J. Steroid Biochem., 27:123 (1987), from rat ventral prostate; from tissue; host or cells: rat ventral prostate
T1 sequence (P15207 1-902): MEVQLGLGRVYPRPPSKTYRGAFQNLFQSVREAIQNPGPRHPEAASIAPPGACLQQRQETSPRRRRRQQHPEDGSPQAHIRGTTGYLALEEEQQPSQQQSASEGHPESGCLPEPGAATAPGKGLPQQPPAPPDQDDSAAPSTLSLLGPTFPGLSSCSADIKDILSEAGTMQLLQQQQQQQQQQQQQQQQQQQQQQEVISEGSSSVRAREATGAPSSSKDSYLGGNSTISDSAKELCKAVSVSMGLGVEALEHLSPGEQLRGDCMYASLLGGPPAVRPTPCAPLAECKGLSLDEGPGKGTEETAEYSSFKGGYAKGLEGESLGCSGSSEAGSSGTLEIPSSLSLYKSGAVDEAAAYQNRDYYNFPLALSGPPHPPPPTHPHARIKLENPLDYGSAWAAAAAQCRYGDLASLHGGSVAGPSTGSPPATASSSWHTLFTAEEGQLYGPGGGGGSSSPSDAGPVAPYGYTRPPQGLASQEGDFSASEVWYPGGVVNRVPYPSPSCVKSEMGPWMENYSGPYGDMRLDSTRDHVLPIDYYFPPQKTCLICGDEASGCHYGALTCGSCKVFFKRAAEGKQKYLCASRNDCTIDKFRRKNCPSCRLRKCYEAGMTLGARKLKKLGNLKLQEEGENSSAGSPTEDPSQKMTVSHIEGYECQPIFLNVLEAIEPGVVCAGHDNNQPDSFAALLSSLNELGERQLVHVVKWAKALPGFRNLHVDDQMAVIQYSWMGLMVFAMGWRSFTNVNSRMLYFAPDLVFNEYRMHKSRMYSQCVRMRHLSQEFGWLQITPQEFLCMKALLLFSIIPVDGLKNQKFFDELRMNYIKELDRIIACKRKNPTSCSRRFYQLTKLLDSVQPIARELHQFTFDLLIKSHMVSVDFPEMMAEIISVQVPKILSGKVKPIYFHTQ

ventral prostate = settings: rats; Chang et al. 1987; cited from earlier work
androgen receptors = settings: Chang et al. 1987; cited from earlier work
[2] = in parentheses, relative to R1881 = 100.00, cell-free, rat ventral prostate

| Molecule | IC50 [1] | Relative receptor binding activity (RBA) [1, 2] | Relative receptor binding activity (RBA) [1] | IC50 ([1]; read-out: IC50 (concentration of test compound needed to show 50% inhibition of [3H]R1881 binding), [3H]R1881 (17a-methyltrienolone) binding, androgen receptor of rat ventral prostate, cell-free) | inhibition of growth of the ventral prostate (ventral prostate) | interaction with androgen receptors in cell-free systems (androgen receptors) |
| --- | --- | --- | --- | --- | --- | --- |
| 1-[2-(9(or 10)-methyl-9,10-dihydrophenanthryl)]-1-ethanol [Compound 11] |  |  | 0.29 | 6.8 µM |  |  |
| O=C1CCc2c1ccc1c2CCc2ccccc2-1 (racemic) [Compound 6, 6,7,16,17-Tetrahydro-15H-cyclopenta[a]phenanthren-17-one] | 17.8 µM |  | 0.11 |  |  |  |
| c1cc2c(c3c1CCCC3)CCCC2 [1,2,3,4,5,6,7,8-octahydro-phenanthrene, reference compound] | 200 µM | 0.01 |  |  |  |  |
| OC1CCc2c1ccc1c2CCc2ccccc2-1 (stereo not shown) [Compound 7, 6,7,16,17-tetrahydro-15H-cyclo-penta[a]phen-anthren-17-ol] | 4.2 µM |  | 0.48 |  |  |  |
| CC(O)c1ccc2c(c1)CCc1ccccc1-2 (stereo not shown) [Compound 9, 1-[2-(9,10-Dihydrophenanthryl)]-1-ethanol] | 2.6 µM | 0.77 |  |  |  |  |
| O=C1CCc2c(ccc3c2CCc2c(O)cccc2-3)C1 [Compound 22, 4'-oxo-7,8-cyclohexeno-9,10-dihydrophenanthren-1-ol] | 1.3 µM | 1.53 |  |  |  |  |
| O=C1CCc2c(ccc3c2ccc2c(O)cccc23)C1 [Compound 25, 4'-oxo-7,8-cyclohexenophenanthren-1-ol] | > 100 µM |  | < 0.02 |  |  |  |
| OCC(O)c1ccc2c(c1)CCc1ccccc1-2 (stereo not shown) [Compound 27, 2-(2',3'-dihydroxyethyl)-9,10-dihydrophenanthrene] | 47.9 µM | 0.04 |  |  |  |  |

Further lines, with some results ahead:

| IC50 [1] | Relative receptor binding activity (RBA) [1, 2] | Molecule | Relative receptor binding activity (RBA) [1] | IC50 ([1]; read-out: IC50 (concentration of test compound needed to show 50% inhibition of [3H]R1881 binding), [3H]R1881 (17a-methyltrienolone) binding, androgen receptor of rat ventral prostate, cell-free) | inhibition of growth of the ventral prostate (ventral prostate) | interaction with androgen receptors in cell-free systems (androgen receptors) |
| --- | --- | --- | --- | --- | --- | --- |
| 10 µM | 0.20 | c1ccc2c(c1)CCc1ccccc1-2 [9,10-dihydrophenanthrene, reference compound] |  |  | inhibits the growth of the ventral prostate in rats | interacts with androgen receptors in cell-free systems |
| 60 µM | 0.03 | c1ccc2c(c1)CCc1ccccc1C2 [10,11-dihydro-5H-dibenzo-[a,d]cycloheptene, reference compound] |  |  |  |  |
| 7.9 µM | 0.25 | Oc1ccc2c(c1)CCc1ccccc1-2 [Compound 13, 2-Hydroxy-9,10-dihydrophenanthrene] |  |  |  |  |
| 3.6 µM | 0.56 | OCCc1ccc2c(c1)CCc1ccccc1-2 [Compound 26, 2-(2'-hydroxyethyl)-9,10-dihydrophenanthrene] |  |  |  |  |
| 800 µM | 0.0025 | c1ccc2c(c1)ccc1ccccc12 [phenanthrene, reference compound] |  |  |  |  |
